Patent US20250163104A1, “MACROCYCLIC IMMUNOMODULATORS” (priority 2021, published 2025)
Where a SMILES comes first, the peptide text is derived from it. Bridges are numbered along the chain shown (N, C = ends). [ ]: non-standard residue; d: D form. Bip = N[C@@H](Cc1ccc(-c2ccccc2)cc1)C(=O)O; Cit = NC(=O)NCCC[C@H](N)C(=O)O; Orn = NCCC[C@H](N)C(=O)O; Dab = NCC[C@H](N)C(=O)O

molecular target: T1, human PD-1 / PD-L1-Ig binding on Jurkat cell line over-expressing human PD-1 (Jurkat-PD-1) (Homo sapiens, UniProt Q15116); test: Jurkat-PD-1 Cell Binding High-Content Screening Assay (CBA); type: cell-based; details: Jurkat-PD-1 cells, PE-labeled PD-L1-Ig 20 nM final; read-out: Jurkat HPD1_PDL1 IC50
T1 construct: expressed in transfected cells; host or cells: Jurkat
In short: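 Jurkat cells over-expressing human PD-1, in DMEM/10% FCS, pre-incubated with compound 2 h at 37° C. PE-labeled human PD-L1-Ig (20 nM final) added for 1 h; cells fixed in paraformaldehyde with Hoechst 33342 nuclear stain, washed, and bound fluorescence quantified by high-content imaging.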

T1 sequence (Q15116 25-288): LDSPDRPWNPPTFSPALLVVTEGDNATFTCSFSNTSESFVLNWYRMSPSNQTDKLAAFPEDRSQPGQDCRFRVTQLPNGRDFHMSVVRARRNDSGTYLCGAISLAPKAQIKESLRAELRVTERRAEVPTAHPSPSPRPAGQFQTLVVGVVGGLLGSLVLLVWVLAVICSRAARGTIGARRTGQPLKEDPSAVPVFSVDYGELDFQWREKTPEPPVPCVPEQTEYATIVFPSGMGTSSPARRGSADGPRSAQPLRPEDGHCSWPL

SMILES	IC50
CC(C)C[C@@H]1NC(=O)[C@H](CCN)NC(=O)[C@@H](CC(C)C)NC(=O)[C@H](CCN)NC(=O)[C@H](CCCNC(N)=O)NC(=O)[C@H](Cc2ccc(-c3ccccc3)cc2)NC(=O)[C@H](C(C)C)NC(=O)[C@H](Cc2c[nH]c3ccccc23)NC(=O)[C@H](CC(=O)O)NC(=O)[C@H](Cc2ccc(O)cc2)NC(=O)[C@H](CC(N)=O)NC(=O)CSC[C@@H](C(=O)NCC(N)=O)NC(=O)[C@H]([C@@H](C)O)NC(=O)[C@H](C(C)C)NC1=O [Compound 1117] ({CH2CO}-NYDWV[Bip][Cit][Dab][dL][Dab]LVTCG-NH2; thioether N-14)	39.3 nM
CC[C@H](C)[C@@H]1NC(=O)[C@H](Cc2ccc(-c3ccccc3)cc2)NC(=O)[C@H](C(C)C)NC(=O)[C@H](Cc2c[nH]c3ccccc23)NC(=O)[C@H](CC(=O)O)NC(=O)[C@H](Cc2ccc(O)cc2)NC(=O)[C@H](CC(N)=O)NC(=O)CSC[C@@H](C(=O)N[C@@H](C)C(N)=O)NC(=O)[C@H](CO)NC(=O)[C@H](C(C)C)NC(=O)[C@H](CC(C)C)NC(=O)[C@H](CCN)NC(=O)[C@@H](CC(C)C)NC(=O)[C@H](CCCN)NC1=O [Compound 1118] ({CH2CO}-NYDWV[Bip]I[Orn][dL][Dab]LVSCA-NH2; thioether N-14)	23.1 nM
CC[C@H](C)[C@@H]1NC(=O)[C@H](Cc2ccc(-c3ccccc3)cc2)NC(=O)[C@H](C(C)C)NC(=O)[C@H](Cc2c[nH]c3ccccc23)NC(=O)[C@H](CC(=O)O)NC(=O)[C@H](Cc2ccc(O)cc2)NC(=O)[C@H](CC(N)=O)NC(=O)CSC[C@@H](C(=O)N[C@@H](C)C(N)=O)NC(=O)[C@H](CO)NC(=O)[C@H](C(C)C)NC(=O)[C@H](CC(C)C)NC(=O)[C@H](CCN)NC(=O)[C@@H](CC(C)C)NC(=O)[C@H](CCCCN)NC1=O [Compound 1119] ({CH2CO}-NYDWV[Bip]IK[dL][Dab]LVSCA-NH2; thioether N-14)	13.3 nM
CC[C@H](C)[C@@H]1NC(=O)[C@H](Cc2ccc(-c3ccccc3)cc2)NC(=O)[C@H](C(C)C)NC(=O)[C@H](Cc2c[nH]c3ccccc23)NC(=O)[C@H](CC(=O)O)NC(=O)[C@H](Cc2ccc(O)cc2)NC(=O)[C@H](CC(N)=O)NC(=O)CSC[C@@H](C(=O)N[C@@H](C)C(N)=O)NC(=O)[C@H](CO)NC(=O)[C@H](C(C)C)NC(=O)[C@H](CC(C)C)NC(=O)[C@H](CCN)NC(=O)[C@@H](CC(C)C)NC(=O)[C@H](CCN)NC1=O [Compound 1120] ({CH2CO}-NYDWV[Bip]I[Dab][dL][Dab]LVSCA-NH2; thioether N-14)	11.5 nM
CC[C@H](C)[C@@H]1NC(=O)[C@H](Cc2ccc(-c3ccccc3)cc2)NC(=O)[C@H](C(C)C)NC(=O)[C@H](Cc2c[nH]c3ccccc23)NC(=O)[C@H](CC(=O)O)NC(=O)[C@H](Cc2ccc(O)cc2)NC(=O)[C@H](CC(N)=O)NC(=O)CSC[C@@H](C(=O)NCC(N)=O)NC(=O)[C@H](CO)NC(=O)[C@H](C(C)C)NC(=O)[C@H](CC(C)C)NC(=O)[C@H](CCN)NC(=O)[C@@H](CC(C)C)NC(=O)[C@H](CCCN)NC1=O [Compound 1121] ({CH2CO}-NYDWV[Bip]I[Orn][dL][Dab]LVSCG-NH2; thioether N-14)	20.9 nM
CC[C@H](C)[C@@H]1NC(=O)[C@H](Cc2ccc(-c3ccccc3)cc2)NC(=O)[C@H](C(C)C)NC(=O)[C@H](Cc2c[nH]c3ccccc23)NC(=O)[C@H](CC(=O)O)NC(=O)[C@H](Cc2ccc(O)cc2)NC(=O)[C@H](CC(N)=O)NC(=O)CSC[C@@H](C(=O)NCC(N)=O)NC(=O)[C@H](CO)NC(=O)[C@H](C(C)C)NC(=O)[C@H](CC(C)C)NC(=O)[C@H](CCN)NC(=O)[C@@H](CC(C)C)NC(=O)[C@H](CCCCN)NC1=O [Compound 1122] ({CH2CO}-NYDWV[Bip]IK[dL][Dab]LVSCG-NH2; thioether N-14)	16.2 nM
